From patent US7973219B2, “Method for producing transgenic plants resistant to weed control compounds which disrupt the porphyrin pathways of plants” (Sumitomo Chemical Company, Limited, priority 1998, dated 2011) come the findings set out here.

Experiment [1] concerns tobacco bearing the introduced Arabidopsis thaliana PPO(A220V) gene. As to the kind of experiment: Leaf piece chlorophyll test, tobacco with Arabidopsis thaliana PPO(A220V) gene. Particulars: 2.0 ppm, 7 days in a light place, treated vs untreated leaf pieces, Example 37. The format is in vivo. The source says: Tobacco leaf pieces cultured sterilely were infected with the Agrobacterium strain and, according to the same manner as described in Example 5, tobacco bearing the introduced Arabidopsis thaliana PPO(A220V) gene was obtained.
Leaves of the tobacco bearing the introduced both Arabidopsis thaliana PPO(A220V) gene and gene encoding the variant tobacco chelatase subunit produced in Example 36, those bearing the introduced Arabidopsis thaliana PPO(A220V) gene produced in Example 35, and the control recombinant tobacco leaves produced in Example 5were collected, and each leaf was divided into the right and left equivalent pieces along the main vein. One of the pieces was treated with an aqueous solution containing 2.0 ppm PPO inhibitory-type herbicidal compound of Structure 8, while the other piece was not treated with the compound. These leaf pieces were placed on MS medium containing 0.8% agar and allowed to stand at room temperature for 7 days in a light place. Then, each leaf piece was ground in 5 ml of 80% aqueous acetone solution in a mortar with a pestle to extract chlorophyll. The extract was diluted 10 times with 80% aqueous acetone solution and the absorbance was measured at 750 nm, 663 nm and 645 nm to calculate the total chlorophyll content according to the method described by Macknney G., J. Biol. Chem. (1941) 140, p 315. […]

The test system of experiment [2] is E. coli BT3/pACYCSP+pTVBCH strain. Description: Growth of E. coli BT3/pACYCSP+pTVBCH (bchH) with herbicidal compound. The format is cell-based. Particulars: Escherichia coli, 18 h, 18 hours culture, Table 2. The source says: According to the description of Gibson, L. C. D. et al., Proc. Natl. Acad. Sci. USA, 92; p 1941 (1995), the DNA fragment containing bchH gene prepared in Example 1 was digested with the restriction enzymes NdeI and BglII. The resultant DNA fragment was inserted between NdeI restriction site and BamHI restriction site of expression vector pET11a (manufactured by Stratagene) to obtain plasmid pETBCH (FIG. 1). This plasmid pETBCH was introduced into E. coli BL21(DE3) strain competent cells (manufactured by Stratagene) according to the manual attached to the competent cells to obtain E. coli BL21(DE3)/pETBCH strain. The strain was inoculated into 1.5 ml LB liquid culture medium (1% tryptone, 0.5% yeast extract, 0.5% NaCl) containing 100 μg/ml ampicillin in a tube (14×10 mm), and the tube was covered with aluminum foil (hereinafter referred to as dark conditions), cultured with shaking at 37° C. under light of fluorescent lamp (about 8000 lux). When the absorbance at 600 nm of the liquid culture medium became about 0.6, isopropyl β-D-thiogalactopyranoside (IPTG) was added to the liquid culture medium so that the final concentration was 0.4 mM, and the culture was continued for about additional 20 hours. […] In contrast to this, when E. coli BL21(DE3)/pETBCH strain was cultured according to the same manner (with IPTG) except that the tube was not covered with aluminum foil (hereinafter referred to as light conditions), E. coli grew and turned red as above. […]
These strains were inoculated into YPT medium containing 10 or 1 ppm of the PPO inhibitory-type herbicidal compound represented by the above Structure 8, 100 μg/ml ampicillin, 15 μg/ml chloramphenicol, 10 μg/ml kanamycin, 10 μg/ml hemin and 50 μg/ml aminolevulinic acid, cultured under dark conditions or light conditions according to the same manner as in Example 2. Then, 18 hours after initiation of culture, the absorbance of the liquid culture medium was measured at 600 nm. By taking the absorbance of the medium without the herbicidal compound as 1, the relative value of the absorbance of the medium containing the herbicidal compound was calculated.
Further, these strains were inoculated into YPT medium containing PPO inhibitory-type herbicidal compounds represented by the above Structures 1, 14, 15, 18-22, 29, 32, 33, 34 and 36, respectively, 100 μg/ml ampicillin, 15 μg/ml chloramphenicol, 10 μg/ml kanamycin, 10 μg/ml hemin and 50 μg/ml aminolevulinic acid, cultured under dark conditions or light conditions similar to the Example 2. Then, 18 hours after initiation of culture, the absorbance of liquid culture medium was measured at 600 nm. By taking the absorbance of the medium without the herbicidal compound as 1, the relative value of the absorbance of the medium containing the herbicidal compound was calculated.

Setting [3] is: read-out: Relative absorbance, in the dark.
Setting [4] is: read-out: Relative absorbance, in the light.

Like-named read-outs stand apart in the source and are kept apart here.

For `C#CCOc1cc(N2C(=O)C3=C(CCCC3)C2=O)c(F)cc1Cl` [Structure 8], the resistant level in experiment [1] is recorded as 12.2%. Further, in experiment [2] (setting [3]), the activity at 1 ppm came out at 106% and the activity at 10 ppm turned out to be 90%. In experiment [2] (setting [4]), the activity at 1 ppm turned out to be 77% and the activity at 10 ppm came to 80%.
